Measurements taken from PubChem BioAssay AID1963838 (Molecular Pharmacology Branch, DTP, NCI, 2024).

System: 855422-203-R-J1-PDC complex spheroid viability
Experiment: Anticancer human tumor 855422-203-R-J1-PDC patient-derived bladder carcinoma cell line growth inhibition [POLQ]
Conditions: for IC50: curve of first compound; for viability, T/C: stronger effect = lower value
Summary of the method: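 PDC + HUVEC + MSC complex spheroids; POLQ inhibitors ± partner drugs; top conc. at/near clinical Cmax, else 10 microM (SN-38 1 microM), half-log dilutions; 37 degrees C, 5% CO2.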

[1] = second compound 0.0316 µM, first compound 0.0316 µM
[2] = second compound 0.0316 µM, first compound 0.1 µM
[3] = second compound 0.0316 µM, first compound 0.316 µM
[4] = second compound 0.0316 µM, first compound 1 µM
[5] = second compound 0.0316 µM, first compound 3.16 µM
[6] = second compound 0.0316 µM, first compound 10 µM
[7] = second compound 0.1 µM, first compound 0.0316 µM
[8] = second compound 0.1 µM, first compound 0.1 µM
[9] = second compound 0.1 µM, first compound 0.316 µM
[10] = second compound 0.1 µM, first compound 1 µM
[11] = second compound 0.1 µM, first compound 3.16 µM
[12] = second compound 0.1 µM, first compound 10 µM
[13] = second compound 0.316 µM, first compound 0.0316 µM
[14] = second compound 0.316 µM, first compound 0.1 µM
[15] = second compound 0.316 µM, first compound 0.316 µM
[16] = second compound 0.316 µM, first compound 1 µM
[17] = second compound 0.316 µM, first compound 3.16 µM
[18] = second compound 0.316 µM, first compound 10 µM
[19] = second compound 1 µM, first compound 0.0316 µM
[20] = second compound 1 µM, first compound 0.1 µM
[21] = second compound 1 µM, first compound 0.316 µM
[22] = second compound 1 µM, first compound 1 µM
[23] = second compound 1 µM, first compound 3.16 µM
[24] = second compound 1 µM, first compound 10 µM
[25] = second compound 3.16 µM, first compound 0.0316 µM
[26] = second compound 3.16 µM, first compound 0.1 µM
[27] = second compound 3.16 µM, first compound 0.316 µM
[28] = second compound 3.16 µM, first compound 1 µM
[29] = second compound 3.16 µM, first compound 3.16 µM
[30] = second compound 3.16 µM, first compound 10 µM
[31] = second compound 10 µM, first compound 0.0316 µM
[32] = second compound 10 µM, first compound 0.1 µM
[33] = second compound 10 µM, first compound 0.316 µM
[34] = second compound 10 µM, first compound 1 µM
[35] = second compound 10 µM, first compound 3.16 µM
[36] = second compound 10 µM, first compound 10 µM
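Also: spheroids exposed to compounds for seven days before readout.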

CC1COCCN1c1cc(-c2ccnn2C)c2ccnc(-c3ccn[nH]3)c2n1 (stereo not drawn) + COC1C(OC(N)=O)C(O)C(Oc2ccc3c(O)c(NC(=O)c4ccc(O)c(CC=C(C)C)c4)c(=O)oc3c2C)OC1(C)C
IC50 (second compound 0.0316 µM): 169 nM | IC50 (second compound 0.1 µM): 171 nM | IC50 (second compound 0.316 µM): 176 nM | IC50 (second compound 1 µM): 193 nM | IC50 (second compound 3.16 µM): 192 nM | IC50 (second compound 10 µM): 183 nM | viability, T/C [1]: 107% | viability, T/C [2]: 71.5% | viability, T/C [3]: 24.6% | viability, T/C [4]: 9.79% | viability, T/C [5]: 8.71% | viability, T/C [6]: 8.63% | viability, T/C [7]: 108% | viability, T/C [8]: 73% | viability, T/C [9]: 23.4% | viability, T/C [10]: 11.9% | viability, T/C [11]: 9.78% | viability, T/C [12]: 9.2% | viability, T/C [13]: 104% | viability, T/C [14]: 74.5% | viability, T/C [15]: 24.1% | viability, T/C [16]: 13.5% | viability, T/C [17]: 11.3% | viability, T/C [18]: 6.39% | viability, T/C [19]: 104% | viability, T/C [20]: 85.4% | viability, T/C [21]: 23.1% | viability, T/C [22]: 13.3% | viability, T/C [23]: 8.72% | viability, T/C [24]: 7.58% | viability, T/C [25]: 111% | viability, T/C [26]: 85% | viability, T/C [27]: 22.9% | viability, T/C [28]: 11% | viability, T/C [29]: 6.98% | viability, T/C [30]: 7.28% | viability, T/C [31]: 118% | viability, T/C [32]: 81.5% | viability, T/C [33]: 21.1% | viability, T/C [34]: 10.7% | viability, T/C [35]: 9.81% | viability, T/C [36]: 7.1%

CC1COCCN1c1cc(C2(S(C)(=N)=O)CC2)nc(-c2ccnc3[nH]ccc23)n1 (stereo not drawn) + COC1C(OC(N)=O)C(O)C(Oc2ccc3c(O)c(NC(=O)c4ccc(O)c(CC=C(C)C)c4)c(=O)oc3c2C)OC1(C)C
IC50 (second compound 0.0316 µM): 2450 nM | IC50 (second compound 0.1 µM): 2390 nM | IC50 (second compound 0.316 µM): 2650 nM | IC50 (second compound 1 µM): 2710 nM | IC50 (second compound 3.16 µM): 2590 nM | IC50 (second compound 10 µM): 2300 nM | viability, T/C [1]: 110% | viability, T/C [2]: 118% | viability, T/C [3]: 122% | viability, T/C [4]: 97.5% | viability, T/C [5]: 36.7% | viability, T/C [6]: 12% | viability, T/C [7]: 100% | viability, T/C [8]: 99.2% | viability, T/C [9]: 118% | viability, T/C [10]: 111% | viability, T/C [11]: 31.6% | viability, T/C [12]: 12.8% | viability, T/C [13]: 110% | viability, T/C [14]: 103% | viability, T/C [15]: 117% | viability, T/C [16]: 111% | viability, T/C [17]: 39% | viability, T/C [18]: 11.1% | viability, T/C [19]: 113% | viability, T/C [20]: 112% | viability, T/C [21]: 126% | viability, T/C [22]: 118% | viability, T/C [23]: 39.5% | viability, T/C [24]: 10.5% | viability, T/C [25]: 125% | viability, T/C [26]: 106% | viability, T/C [27]: 116% | viability, T/C [28]: 112% | viability, T/C [29]: 37.1% | viability, T/C [30]: 12.3% | viability, T/C [31]: 114% | viability, T/C [32]: 103% | viability, T/C [33]: 111% | viability, T/C [34]: 99.9% | viability, T/C [35]: 30.8% | viability, T/C [36]: 10.7%

CCCS(=O)(=O)Nc1ccc(F)c(C(=O)c2c[nH]c3ncc(-c4ccc(Cl)cc4)cc23)c1F + COC1C(OC(N)=O)C(O)C(Oc2ccc3c(O)c(NC(=O)c4ccc(O)c(CC=C(C)C)c4)c(=O)oc3c2C)OC1(C)C
IC50 (second compound 0.0316 µM): 5930 nM | IC50 (second compound 0.1 µM): 5850 nM | IC50 (second compound 0.316 µM): 5940 nM | IC50 (second compound 1 µM): 5470 nM | IC50 (second compound 3.16 µM): 5740 nM | IC50 (second compound 10 µM): 5880 nM | viability, T/C [1]: 112% | viability, T/C [2]: 94.6% | viability, T/C [3]: 113% | viability, T/C [4]: 116% | viability, T/C [5]: 113% | viability, T/C [6]: 0.27% | viability, T/C [7]: 117% | viability, T/C [8]: 108% | viability, T/C [9]: 115% | viability, T/C [10]: 107% | viability, T/C [11]: 106% | viability, T/C [12]: 1.29% | viability, T/C [13]: 118% | viability, T/C [14]: 96.7% | viability, T/C [15]: 114% | viability, T/C [16]: 107% | viability, T/C [17]: 109% | viability, T/C [18]: 1.4% | viability, T/C [19]: 119% | viability, T/C [20]: 117% | viability, T/C [21]: 108% | viability, T/C [22]: 94.2% | viability, T/C [23]: 98.7% | viability, T/C [24]: 0.24% | viability, T/C [25]: 102% | viability, T/C [26]: 111% | viability, T/C [27]: 110% | viability, T/C [28]: 118% | viability, T/C [29]: 103% | viability, T/C [30]: 0.36% | viability, T/C [31]: 108% | viability, T/C [32]: 108% | viability, T/C [33]: 96.2% | viability, T/C [34]: 116% | viability, T/C [35]: 110% | viability, T/C [36]: 0.68%

COc1cccc(OCCCN)c1-c1cc(Nc2cnc(C#N)cn2)n[nH]1 + COC1C(OC(N)=O)C(O)C(Oc2ccc3c(O)c(NC(=O)c4ccc(O)c(CC=C(C)C)c4)c(=O)oc3c2C)OC1(C)C
IC50 (second compound 0.0316 µM): 19.4 nM | IC50 (second compound 0.1 µM): 16 nM | IC50 (second compound 0.316 µM): 20 nM | IC50 (second compound 1 µM): 16 nM | IC50 (second compound 3.16 µM): 16.1 nM | IC50 (second compound 10 µM): 16 nM | viability, T/C (second compound 0.0316 µM, first compound 0.00316 µM): 98.3% | viability, T/C (second compound 0.0316 µM, first compound 0.01 µM): 90% | viability, T/C [1]: 20.3% | viability, T/C [2]: 8.97% | viability, T/C [3]: 6.7% | viability, T/C [4]: 6.14% | viability, T/C (second compound 0.1 µM, first compound 0.00316 µM): 102% | viability, T/C (second compound 0.1 µM, first compound 0.01 µM): 69% | viability, T/C [7]: 22.4% | viability, T/C [8]: 8.69% | viability, T/C [9]: 5.66% | viability, T/C [10]: 4.71% | viability, T/C (second compound 0.316 µM, first compound 0.00316 µM): 109% | viability, T/C (second compound 0.316 µM, first compound 0.01 µM): 101% | viability, T/C [13]: 16.4% | viability, T/C [14]: 7.64% | viability, T/C [15]: 6.06% | viability, T/C [16]: 5.18% | viability, T/C (second compound 1 µM, first compound 0.00316 µM): 118% | viability, T/C (second compound 1 µM, first compound 0.01 µM): 75.1% | viability, T/C [19]: 13.6% | viability, T/C [20]: 6.95% | viability, T/C [21]: 5.24% | viability, T/C [22]: 5.12% | viability, T/C (second compound 3.16 µM, first compound 0.00316 µM): 109% | viability, T/C (second compound 3.16 µM, first compound 0.01 µM): 74.9% | viability, T/C [25]: 14.5% | viability, T/C [26]: 7.77% | viability, T/C [27]: 5.93% | viability, T/C [28]: 8.32% | viability, T/C (second compound 10 µM, first compound 0.00316 µM): 107% | viability, T/C (second compound 10 µM, first compound 0.01 µM): 74.2% | viability, T/C [31]: 15% | viability, T/C [32]: 8.46% | viability, T/C [33]: 7.19% | viability, T/C [34]: 4.54%
